Laboratory results as given in patent publication US4619823A, “Radioactive iodine labeled metaraminol and diagnostic agent containing platelets labeled therewith” (Nihon Medi-Physics Co., Ltd., priority 1983, dated 1986).

System: platelets
Settings: 100 µM
Method: Change of the take up rate of ^125 I-labled metaraminol into platelets in coexistence with of a medical compound:
The take up rate of ^125 I-labeled metaraminol into platelets in the coexistence with a medical compound was examined. Calculation was make taking the take up rate in case of ^125 I-labeled metaraminol alone as 100%. ^125 I-labeled metaraminol was added to platelets in a molar concentration of 1×10^-7.

Row | Compound | activity [%]
1 | CNCC(O)c1ccc(O)c(O)c1 (stereo not shown) [Adrenaline] | 61.6 ± 8.3
2 | Cc1ccc(N(CC2=NCCN2)c2cccc(O)c2)cc1 [Phentolamine] | 43.1 ± 3.4
3 | NCCc1c[nH]c2ccc(O)cc12 [Serotonin] | 17.1 ± 10.3
4 | CC(C)NCC(O)COc1cccc2ccccc12 (stereo not shown) [Propranolol] | 18 ± 3.1
5 | CN(C)CCCN1c2ccccc2CCc2ccccc21 [Imipramine] | 45.8 ± 6.3

System: not given
Settings: background statement; cited from earlier work

Row | Compound | toxicity
6 | CC(N)C(O)c1cccc(O)c1 (stereo not drawn) [metaraminol, alpha-(1-aminoethyl)-3-hydroxybenzenemethanol] | no practical toxicity problem
7 | Oc1cccc2cccnc12 [oxine] | relatively high toxicity
